From US9493468B2, “Antifungal 5,6-dihydro-4H-pyrrolo[1,2-a][1,4]benzo-diazepines and 6H-pyrrolo[1,2-a][1,4]benzodiazepines substituted with heterocyclic derivatives” (Janssen Pharmaceutica NV, priority 2011, dated 2016)

Assays:
Type in all cases: cell-based
Microsporum canis = test: Antifungal activity in vitro, resazurin growth inhibition: Microsporum canis (B68128)
In short: (§1)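 Resazurin conversion to fluorescent resorufin (ex 550/em 590 nm) served as the growth readout. Compounds spanned 2- or 4-fold serial dilutions with 64 μM top in-test concentration; inoculum 10^3 cfu per well in MOPS-buffered RPMI-1640 (pH 7.0, 2% glucose). Incubation species-dependent, dermatophytes at 27° C. for ≥1 week.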

[1] = test system: Trichophyton mentagrophytes; test: Antifungal activity in vitro, resazurin growth inhibition: Trichophyton mentagrophytes (B70554)
In short: as §1

Trichophyton rubrum = test: Antifungal activity in vitro, resazurin growth inhibition: Trichophyton rubrum (B68183)
In short: as §1

Scedosporium apiospermum = test: Antifungal activity in vitro, resazurin growth inhibition: Scedosporium apiospermum (IHEM3817)
In short: (§2)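 Broth microdilution: RPMI-1640/L-Gln/2% glucose, MOPS pH 7.0±0.1; 10^3 cfu/well; top concentration 64 μM, 2- or 4-fold steps. Dermatophytes at 27° C., one week or more. Resazurin 0.005% (w/v) added, fluorescence 550/590 nm.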

Scedosporium prolificans = test: Antifungal activity in vitro, resazurin growth inhibition: Scedosporium prolificans (IHEM21157)
In short: as §2

Sporothrix schenkii = test: Antifungal activity in vitro, resazurin growth inhibition: Sporothrix schenkii (B62482)
In short: as §2

Aspergillus fumigatus = test: Antifungal activity in vitro, resazurin growth inhibition: Aspergillus fumigatus (B42928)
In short: as §2

Candida parapsilosis = test: Antifungal activity in vitro, resazurin growth inhibition: Candida parapsilosis (B66126)
In short: as §2

Cryptococcus neoformans = test: Antifungal activity in vitro, resazurin growth inhibition: Cryptococcus neoformans (B66663)
In short: as §2

Rhizopus oryzae = test: Antifungal activity in vitro, resazurin growth inhibition: Rhizopus oryzae (IHEM5223)
In short: as §2

Rhizomucor miehei = test: Antifungal activity in vitro, resazurin growth inhibition: Rhizomucor miehei (IHEM13391)
In short: as §2

| Inf. B: Microsporum canis B68128, pIC50 (Microsporum canis) | Inf. G: Trichophyton mentagrophytes B70554, pIC50 [1] | Inf. C: Trichophyton rubrum B68183, pIC50 (Trichophyton rubrum) | Inf. H: Scedosporium apiospermum IHEM3817, pIC50 (Scedosporium apiospermum) | Inf. I: Scedosporium prolificans IHEM21157, pIC50 (Scedosporium prolificans) | Inf. A: Sporothrix schenkii B62482, pIC50 (Sporothrix schenkii) | Inf. E: Aspergillus fumigatus B42928, pIC50 (Aspergillus fumigatus) | Inf. D: Candida parapsilosis B66126, pIC50 (Candida parapsilosis) | Inf. F: Cryptococcus neoformans B66663, pIC50 (Cryptococcus neoformans) | Inf. J: Rhizopus oryzae IHEM5223, pIC50 (Rhizopus oryzae) | Inf. K: Rhizomucor miehei IHEM13391, pIC50 (Rhizomucor miehei) | SMILES |
| --- | --- | --- | --- | --- | --- | --- | --- | --- | --- | --- | --- |
| 6.14 | 5.99 | 6.71 | 5.63 | 6.27 | 5.59 | 5.61 | 5.12 | 6.51 | 4.98 | 5.06 | c1ccc2c(c1)CN=C(c1cc3ccccc3s1)c1cccn1-2 [Compound 163] |
| 5.86 | 6.29 | 6.51 | 5.66 | 6.44 | 5.40 | 5.70 | 4.97 | 5.85 | <4.19 | 5.15 | Cc1cccc2c1-n1cccc1C(c1cc3ccccc3s1)=NC2 [Compound 164] |
| 6.19 | 5.86 | 6.70 | <4.19 | 4.46 | 5.12 | 5.28 | <4.19 | 5.81 | <4.19 | <4.19 | Clc1cccc2c1CN=C(c1cc3ccccc3s1)c1cccn1-2 [Compound 165] |
| 5.70 | 5.52 | 5.70 | 4.33 | 5.65 | 5.52 | 6.00 | <4.19 | 6.00 | 5.37 | <4.19 | Clc1ccc2c(c1)-n1cccc1C(c1cc3ccccc3s1)=NC2 [Compound 166] |
| 6.01 | 5.97 | 6.79 | 5.72 | 6.31 | 5.70 | 5.38 | 4.90 | 5.86 | <4.19 | 5.10 | Clc1cccc2c1-n1cccc1C(c1cc3ccccc3s1)=NC2 [Compound 167] |
| 4.96 | 6.40 | 6.18 | <4.19 | 6.48 | 6.22 | 6.73 | <4.19 | 6.41 | <4.19 | <4.19 | Clc1cc(Cl)c2c(c1)-n1cccc1C(c1cc3ccccc3s1)=NC2 [Compound 168] |

Second part, the compound before the results:

| SMILES | Inf. B: Microsporum canis B68128, pIC50 (Microsporum canis) | Inf. G: Trichophyton mentagrophytes B70554, pIC50 [1] | Inf. C: Trichophyton rubrum B68183, pIC50 (Trichophyton rubrum) | Inf. H: Scedosporium apiospermum IHEM3817, pIC50 (Scedosporium apiospermum) | Inf. I: Scedosporium prolificans IHEM21157, pIC50 (Scedosporium prolificans) | Inf. A: Sporothrix schenkii B62482, pIC50 (Sporothrix schenkii) | Inf. E: Aspergillus fumigatus B42928, pIC50 (Aspergillus fumigatus) | Inf. D: Candida parapsilosis B66126, pIC50 (Candida parapsilosis) | Inf. F: Cryptococcus neoformans B66663, pIC50 (Cryptococcus neoformans) | Inf. J: Rhizopus oryzae IHEM5223, pIC50 (Rhizopus oryzae) | Inf. K: Rhizomucor miehei IHEM13391, pIC50 (Rhizomucor miehei) |
| --- | --- | --- | --- | --- | --- | --- | --- | --- | --- | --- | --- |
| COc1cccc2cc(C3=NCc4c(C)cccc4-n4cccc43)oc12 [Compound 144] | 6.49 | 7.45 | >8.41 | 4.71 | 6.26 | 5.69 | 5.62 | 4.57 | 5.31 | <4.19 | 4.44 |
| COc1ccc2oc(C3=NCc4c(Cl)cccc4-n4cccc43)cc2c1 [Compound 146] | 5.76 | 5.44 | 6.19 | <4.19 | 4.80 | <4.19 | <4.19 | <4.19 | <4.19 | <4.19 | <4.19 |
| Fc1cccc2cc(C3=NCc4c(Cl)cc(Cl)cc4-n4cccc43)oc12 [Compound 149] | 5.35 | 5.61 | 6.10 | <4.19 | 5.79 | <4.19 | 5.47 | <4.19 | 4.81 | <4.19 | <4.19 |
| Clc1cccc2c1CN=C(c1ccc3ccoc3c1)c1cccn1-2 [Compound 150] | 6.14 | 6.15 | 8.25 | <4.19 | 5.93 | 5.52 | 6.00 | 4.68 | 4.57 | <4.19 | <4.19 |
| Clc1cccc2c1CN=C(c1ccc3occ(Cl)c3c1)c1cccn1-2 [Compound 152] | 6.34 | 6.46 | 6.85 | 4.28 | 5.15 | 5.11 | 6.26 | 5.59 | 5.82 | <4.19 | <4.19 |
| Fc1cc(F)c2c(c1)-n1cccc1C(c1cc3cc(Cl)cnc3o1)=NC2 [Compound 158] | 5.70 | 5.17 | 5.72 | 4.37 | 6.00 | <4.19 | <4.19 | <4.19 | 5.20 | <4.19 | <4.19 |
| Clc1cccc2c1CN=C(c1cnc3occc3c1)c1cccn1-2 [Compound 161] | 5.96 | 5.40 | 6.12 | 6.47 | 6.27 | 5.02 | 5.04 | <4.19 | 4.56 | <4.19 | <4.19 |
| Fc1cccc2cc(C3=NCc4c(Cl)cccc4-n4cccc43)sc12 [Compound 170] | 6.23 | 6.18 | 6.63 | 5.63 | 6.51 | 5.55 | 5.74 | <4.19 | 6.47 | <4.19 | <4.19 |
| Clc1cccc2c1CN=C(c1ccc3ccsc3c1)c1cccn1-2 [Compound 172] | 6.90 | 6.81 | 7.35 | 5.15 | 5.45 | 5.59 | 6.29 | 5.80 | 5.85 | <4.19 | 4.72 |
| Clc1ccc2c(c1)-n1cccc1C(c1ccc3sccc3c1)=NC2 [Compound 173] | 6.54 | 6.51 | 6.41 | 5.08 | 4.54 | 5.70 | 6.30 | 5.71 | 6.41 | <4.19 | 5.08 |
